The test system of data set [1] is A431 cells. The data set is described as follows: MTT viability assay, A431. Type of data set: cell-based. Particulars: Homo sapiens, A-431, 72 h, MTT 72 h. From the text: MDCK II canine kidney cells, A431 epidermoid carcinoma cells, the human uterine sarcoma cell lines MES-SA and the doxorubicin selected MES-SA-Dx5 were obtained from ATCC (MDCK II: No. CRL-2936™, A431: No. CRL-1555™, MES-SA: No. CRL-1976™, MES-SA/Dx5: No. CRL-1977™). ABCB1 was expressed in A431 and MES-SA cells using lentiviral transduction. The human cervix carcinoma cell line KB-3-1 and the vinblastine selected KB-v1were kind gifts from Dr. Michael M. Gottesman, National Institutes of Health. The phenotype of the resistant cells was verified using cytotoxicity assays. MDCK-B1 and MDCK-MM were established by the Sleeping Beauty transposon-based gene delivery system. OVCAR-8 and NCI-ADRres cells (obtained from the Division of Cancer Treatment and Diagnosis (DCTD) Tumor Repository (National Cancer Institute, Frederick, MD, USA)) were cultivated in RPMI-1640 (Sigma Aldrich, Budapest, Hungary), and other cell lines were cultivated in Dulbecco’s Modified Eagle Medium (DMEM, Sigma Aldrich, Budapest, Hungary), supplemented with 10% fetal bovine serum, 5 mM glutamine, and 50 unit/mL penicillin and streptomycin (Life Technologies, Carlsbad, CA, USA). All cell lines were cultivated at 37 °C, 5% CO2.
MTT viability assays were performed as described earlier with minor modifications. Briefly, cells were seeded into 96-well tissue culture plates (Sarstedt, Newton, NC, USA/Orange, Braine-l’Alleud, Belgium) at a density of 5000 cells/well and allowed to attach overnight. Test compounds were added to achieve the required final concentration in a final volume of 100 µL per well. After an incubation period of 72 h, the supernatant was removed and fresh medium containing the MTT reagent (0.083 mg/mL) was added. Incubation with MTT at 37 °C was terminated after 1 h by removing the supernatant and lysing the cells with 100 µL DMSO per well. Viability of the cells was measured spectrophotometrically based on the absorbance values at 540 nm using either a Perkin Elmer Victor X3 or an EnSpire microplate reader. Data were background corrected by subtraction of the signal obtained from unstained cell lysates and normalized to untreated cells. Curves were fitted by Prism software (GraphPad Software Inc., San Diego, CA, USA) using the sigmoidal dose-response model (comparing variable and fixed slopes). […] Significance was calculated using unpaired t-tests; results are given as *: p ≤ 0.05, **: p ≤ 0.01, ***: p ≤ 0.001, ****: p ≤ 0.0001.
On the technique in general: Tetrazolium dyes change colour on reduction, which living cells bring about.

The subject of data set [2] is MES-SA/Dx5 cells. The data set is described as follows: ROS determination with DCFDA, MES-SA/Dx5. Type of data set: cell-based, human. The conditions noted are these: 2 h. The procedure:
Measurements were performed as described earlier. Briefly, cells were harvested, washed with PBS, and incubated with 10 µM DCFDA in a water bath shaker at 37 °C for 30 min in a density of 3 × 10^6 cells/mL. After washing with PBS, cells were seeded to 96-well plates in PBS in a density of 2 × 10^4 cells/well. Following the measurement of the basal fluorescence, test compounds were added in different concentrations and the fluorescence of the samples was followed at time intervals of 10 min. DCFDA solution in buffer was used as a cell free control to test for interaction of the test compounds with DCFDA. Data were analyzed as fold change of fluorescence compared to basal levels and untreated cells. Significance was calculated using unpaired t-tests; results are given as *: p ≤ 0.05, **: p ≤ 0.01, ***: p ≤ 0.001, ****: p ≤ 0.0001.
Table S3: Characterization of intracellular ROS production with the DCFDA assay for P -gp negative MES-SA and P-gp positive MES-SA/Dx5 cells. Fold changes in fluorescence are shown after a 2 h with the investigated 8 -hydroxyquinoline ligands. Data S-refer to Figure 7 and allow […]
concentration range from 6.25µ M to 50µ M. Fold change of fluorescence obtained in the presence of 5 mM NAC is given in brackets.

Details of data set [3]: method as in PMID 21275772. Particulars: T = 25 °C, I = 0.2 M (KCl), cited from earlier work; for pKa (additional): group named in the cell.
In data set [4] the test system is MES-SA/B1 cells. The data set is described as follows: TXRF intracellular iron levels, MES-SA/B1. Type of data set: cell-based, human. The conditions noted are these: for Intracellular iron levels: MES-SA/B1, 25 µM holo-transferrin 4 h, then 5 µM ligand 8 h (Figure 4A). The procedure:
Cells were seeded to 6-well plates in a density of 1.5 Mio cells/well and allowed to attach overnight. Following a washing step with phosphate buffered saline (PBS), cells were incubated in serum free DMEM. For the iron-level measurements, cells were preloaded with 25 µM holo-transferrin for 4 h and, after a washing step with serum free DMEM, cells were incubated with 5 µM of each ligand for 8 h. For the detection of copper levels, cells were treated with 1 µM of the ligands in the presence of 5 µM CuCl2 for 4 h. Following incubation, cells were harvested upon trypsination, washed twice with PBS, counted and the resulting pellets were digested in 20 μL of 30% H2O2, 80 μL of 65% HNO3. 10 μL of 15 µg/mL Ga(NO3)3 (in nitric acid) was added as an internal standard upon digestion for 24 h at room temperature. From the resulting solutions, 2 μL were pipetted on the quartz reflectors used for total-reflection X-ray fluorescence (TXRF) analysis. For the determination of the intracellular Cu content, the TXRF method was used as previously reported. Briefly, all determinations were performed on an Atomika 8030C TXRF spectrometer (Atomika Instruments GmbH, Oberschleissheim, Germany). The stock solution of 1000 mg/L Ga was purchased from Merck (Darmstadt, Germany). The Kα line used for determination of Fe and Cu were at 6.403 and 8.047 keV. […] Significance was calculated using unpaired t-tests; results are given as *: p ≤ 0.05, **: p ≤ 0.01, ***: p ≤ 0.001, ****: p ≤ 0.0001.
Figure 4 Effect of the compounds on intracellular metal levels. (A) Iron levels of MES-SA (open columns) and MES-SA/B1 cells in absence (dark red squared columns) and presence of Pgp inhibitor Tariquidar (bright red squared columns). Cells were loaded with 25 µM holo-transferrin (4 h), followed by an incubation (8 h) without (ctr) or with 5 µM of ligands Q-1, Q-2, Q-3, and Q-4. […] (B) Cellular copper levels measured following a 4 h co-administration of compounds Q-1, Q-2, Q-3, and Q-4 (1 µM) and CuCl2 (5 µM) in MES-SA (open columns), MES-SA/Dx5 (filled columns) and MES-SA-B1 (squared columns) cells. Significance is given as *: p ≤ 0.05, **: p ≤ 0.01, ***: p ≤ 0.001.

[5] abbreviates: presence of 1 µM Tariquidar (values in brackets).
Where [6] appears, read: MES-SA/Dx5, 6.25 µM, presence of 5 mM NAC (brackets).
The mark [7] stands for this setting: MES-SA/Dx5, 12.5 µM, presence of 5 mM NAC (brackets).
Setting [8] is: MES-SA/Dx5, 25 µM, presence of 5 mM NAC (brackets).
Where [9] appears, read: MES-SA/Dx5, 50 µM, presence of 5 mM NAC (brackets).

The values that follow come from PMC7796460, “Relation of Metal-Binding Property and Selective Toxicity of 8-Hydroxyquinoline Derived Mannich Bases Targeting Multidrug Resistant Cancer Cells” (Cancers, 2021).

Marks after values point to notes of the source that are not given here.

For orientation: IC50 means the concentration needed to halve the response being measured. As to `Oc1c(CN2CCOCC2)ccc2cccnc12` [Compound Q-2, 7-(morpho-lino-methyl)quinolin-8-ol], the IC50 in data set [1] (absence of Tariquidar) was 3.31 ± 1.61 µM; in data set [1] (setting [5]), 3.18 µM. Further, the “Fold change in fluorescence (DCFDA)” value in data set [2] (MES-SA/Dx5, 6.25 µM) came to 1.863± 0.81; in data set [2] (setting [6]), 1.024± 0.19; in data set [2] (MES-SA/Dx5, 12.5 µM), 2.324± 1.25; in data set [2] (setting [7]), 1.137± 0.32; in data set [2] (MES-SA/Dx5, 25 µM) it was 3.348± 2.35; in data set [2] (setting [8]) it was 1.074± 0.28. Besides, the “Fold change in fluorescence (DCFDA)” value in data set [2] (MES-SA/Dx5, 50 µM) came to 4.103± 2.67; in data set [2] (setting [9]) it was 1.154± 0.22. The “pKa (NquinoliniumH+)” value in data set [3] is on record as 2.59 ^a. In addition, the “pKa (OH)” value in data set [3] is given as 10.37 ^a. Also, the “pKa (additional)” value in data set [3] is listed as 6.25 ^a (NmorpholiniumH^+).

As to `Oc1cccc2cccnc12` [Compound Q-1, 8-Hydroxyquinoline], the results for the IC50 in data set [1] (absence of Tariquidar) and in data set [1] (setting [5]) were 2.35 ± 0.92 µM and 2.9 µM, respectively. Also, the “Fold change in fluorescence (DCFDA)” value stood at 1.006± 0.15 in data set [2] (MES-SA/Dx5, 6.25 µM); 1.085± 0.11 in data set [2] (setting [6]); 0.720± 0.21 in data set [2] (MES-SA/Dx5, 12.5 µM); 1.071± 0.12 in data set [2] (setting [7]); 0.713± 0.21 in data set [2] (MES-SA/Dx5, 25 µM); 0.971± 0.17 in data set [2] (setting [8]). Moreover, the “Fold change in fluorescence (DCFDA)” value in data set [2] (MES-SA/Dx5, 50 µM) is 0.725± 0.18; in data set [2] (setting [9]), 0.918± 0.10. In addition, in data set [4], the Intracellular iron levels result was “negligible”. Moreover, the “pKa (NquinoliniumH+)” value in data set [3] is 4.99 ^a. Further, the “pKa (OH)” value in data set [3] is given as 9.51 ^a.

With `Oc1c(CNCc2ccccc2F)cc(Cl)c2cccnc12` [Compound Q-4, 5-chloro-7-((2-fluorobenzylamino)methyl)quinolin-8-ol], the IC50 is 5.82 ± 1.15 µM in data set [1] (absence of Tariquidar) and 4.54 µM in data set [1] (setting [5]). In addition, the “Fold change in fluorescence (DCFDA)” value was found to be 1.238± 0.28 in data set [2] (MES-SA/Dx5, 6.25 µM); 1.191± 0.07 in data set [2] (setting [6]); 1.396± 0.35 in data set [2] (MES-SA/Dx5, 12.5 µM); 1.337± 0.26 in data set [2] (setting [7]); 1.340± 0.26 in data set [2] (MES-SA/Dx5, 25 µM); 1.320± 0.31 in data set [2] (setting [8]). For the same molecule, the “Fold change in fluorescence (DCFDA)” value in data set [2] (MES-SA/Dx5, 50 µM) worked out at 1.286± 0.30; in data set [2] (setting [9]) it was 1.283± 0.20. Further, the “Intracellular iron depletion in the presence of the Pgp inhibitor TQ” value in data set [4] (MES-SA/B1, 5 µM ligand 8 h, with Tariquidar) is listed as “abrogated”. The Intracellular iron levels result in data set [4] was “marked, selective iron depletion”. For the same molecule, the “pKa (NquinoliniumH+)” value in data set [3] is < 2 ^a. Also, in data set [3], the “pKa (OH)” value is recorded as 5.16 ^a. Further, in data set [3], the “pKa (additional)” value is 8.54 ^a (NbenzylamineH2^+).

Turning to `Oc1c(CN2CCCCC2)ccc2cccnc12` [Compound Q-3, 7-(piperidin-1-ylmethyl)quinolin-8-ol], the IC50 in data set [1] (absence of Tariquidar) was 3.91 ± 0.83 µM; in data set [1] (setting [5]), 4.09 µM. Besides, the “Fold change in fluorescence (DCFDA)” value in data set [2] (MES-SA/Dx5, 6.25 µM) worked out at 1.449± 0.46; in data set [2] (setting [6]), 0.954± 0.15; in data set [2] (MES-SA/Dx5, 12.5 µM) it was 1.400± 0.18; in data set [2] (setting [7]), 1.050± 0.09; in data set [2] (MES-SA/Dx5, 25 µM), 1.586± 0.22; in data set [2] (setting [8]), 1.201± 0.17. Moreover, the “Fold change in fluorescence (DCFDA)” value in data set [2] (MES-SA/Dx5, 50 µM) turned out to be 1.786± 0.36; in data set [2] (setting [9]), 1.189± 0.18. Besides, in data set [4], the Intracellular iron levels result is reported as “drop of intracellular iron levels below baseline levels”. Moreover, in data set [3], the “pKa (NquinoliniumH+)” value is on record as 2.69 ^a. Also, the “pKa (OH)” value in data set [3] is listed as 6.99 ^a. Moreover, in data set [3], the “pKa (additional)” value is given as >11.5 ^a.
